Among the data in patent publication US20100143886A1, “IN VIVO HCV RESISTANCE TO ANTI-VIRAL INHIBITORS” (priority 2007, published 2010) are viral load suppression values, retold here.

The structures appear in SMILES notation. Entries after “also recorded” stand apart in the source; their conditions may differ.

One experiment deals with HCV genotype 1a. The experiment in a line: Viral load by commercial RT-TaqMan assay, chimpanzees dosed with Compound B (Example 1). It counts as in vivo, chimpanzee. The note with it: two chimpanzees, oral 5 mg per kg b.i.d. for 7 days; level of quantitation 20 IU/ml. How it is done:
Two chimpanzees chronically infected with HCV genotype 1a from a human were orally dosed with Compound B (a NS3 protease inhibitor) for 7 days at 5 mg per kg b.i.d. Plasma samples were collected prior, during, and after the dosing regimen, with viral load determined by a commercial viral load assay (RT-TaqMan, level of quantitation 20 IU/ml, Cenetron Diagnostics, Austin, Tex. 78758).

The test system of a further experiment is HCV genotype 3a. The experiment in a line: Viral load by commercial RT-TaqMan assay, chimpanzee dosed with Compound A (Example 3). The class given is in vivo. The note with it: 2 mg per kg IV for 7 days, level of quantitation 20 IU/ml. How it is done: A chimpanzee infected with a HCV genotype 3a from a human was dosed with Compound A (a N5B polymerase inhibitor) for 7 days at 2 mg per kg IV. Plasma samples were collected prior, during, and after the dosing regimen, with viral load determined by a commercial viral load assay (RT-TaqMan, level of quantitation 20 IU/ml, Cenetron Diagnostics, Austin, Tex. 78758).

With `CC[C@@H]1C[C@]1(NC(=O)[C@@H]1C[C@@H]2CN1C(=O)[C@H](C(C)(C)C)NC(=O)OCC(C)(C)CCCCc1cccc3c1CN(C3)C(=O)O2)C(=O)NS(=O)(=O)C1CC1` [Compound B], the viral load suppression result in the experiment on HCV genotype 1a is recorded as “below quantifiable levels; also recorded: below the limit of quantitation (BLQ)”.
`C[C@@]1(O)[C@H](O)[C@@H](CO)O[C@H]1n1ccc2c(N)ncnc21` [Compound A]: the viral load suppression entry in the experiment on HCV genotype 3a is recorded as “below the limit of quantitation (BLQ); also recorded: below quantifiable levels”.
